Measured values taken from the Kinase Knowledgebase extract (Sharma et al. 2016).

Molecular target: PIK3CA (human) (UniProt P42336)
Assay: Inhibition of PIK3CA Kinase Activity

PIK3CA (human), sequence (P42336 whole entry, looked up): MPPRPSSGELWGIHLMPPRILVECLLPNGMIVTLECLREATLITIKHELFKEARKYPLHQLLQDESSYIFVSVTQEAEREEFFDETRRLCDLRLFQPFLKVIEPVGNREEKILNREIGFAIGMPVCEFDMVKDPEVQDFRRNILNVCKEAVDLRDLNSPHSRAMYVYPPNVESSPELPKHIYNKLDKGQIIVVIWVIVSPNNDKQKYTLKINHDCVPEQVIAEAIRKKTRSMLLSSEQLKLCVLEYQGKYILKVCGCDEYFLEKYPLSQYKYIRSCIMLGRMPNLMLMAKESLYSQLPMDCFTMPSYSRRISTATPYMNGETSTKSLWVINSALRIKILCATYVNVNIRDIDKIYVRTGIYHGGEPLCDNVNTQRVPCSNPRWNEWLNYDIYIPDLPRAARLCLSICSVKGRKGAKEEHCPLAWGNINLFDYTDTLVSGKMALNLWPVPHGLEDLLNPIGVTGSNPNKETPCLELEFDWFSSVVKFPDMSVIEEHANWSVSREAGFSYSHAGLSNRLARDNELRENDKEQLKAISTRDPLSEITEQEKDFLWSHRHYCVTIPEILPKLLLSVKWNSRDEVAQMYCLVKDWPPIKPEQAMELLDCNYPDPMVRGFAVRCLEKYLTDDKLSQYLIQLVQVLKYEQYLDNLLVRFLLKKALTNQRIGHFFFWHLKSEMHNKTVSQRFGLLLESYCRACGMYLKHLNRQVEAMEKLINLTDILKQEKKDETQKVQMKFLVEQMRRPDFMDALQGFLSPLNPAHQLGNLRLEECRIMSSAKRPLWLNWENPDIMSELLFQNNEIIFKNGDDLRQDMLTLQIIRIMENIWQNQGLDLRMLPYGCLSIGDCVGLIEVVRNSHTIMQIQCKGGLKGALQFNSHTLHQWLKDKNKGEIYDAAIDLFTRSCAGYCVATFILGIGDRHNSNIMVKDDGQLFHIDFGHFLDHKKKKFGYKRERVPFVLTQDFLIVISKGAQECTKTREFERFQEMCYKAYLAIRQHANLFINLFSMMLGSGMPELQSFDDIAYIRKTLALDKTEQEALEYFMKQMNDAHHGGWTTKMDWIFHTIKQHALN

SMILES	IC50 [nM]
Cc1ccc(C(=O)N2CCC(n3cnc4c(-c5cnc(N)nc5)nc(N5CCOCC5)nc43)C2)s1 (centres undefined)	< 1000
COCC(C)n1cnc2c(-c3cnc(N)nc3C)nc(N3CCOCC3)nc21 (centres undefined)	< 1000
CC(=O)Nc1ccc(Cn2cnc3c(-c4cccc(OC(C)=O)c4)nc(N4CCOCC4)nc32)cc1	< 1000
CCNc1ccc(Cn2cnc3c(-c4cccc(O)c4)nc(N4CCOCC4)nc32)cc1	< 1000
COCC(C)n1cnc2c(-c3cccc4[nH]ccc34)nc(N3CCOCC3)nc21 (centres undefined)	< 1000
CC(C)(C)OC(=O)N1CCC(n2cnc3c(-c4cccc(O)c4)nc(N4CCOCC4)nc32)CC1	< 1000
CS(=O)(=O)Nc1ccc(Cn2cnc3c(-c4cccc(O)c4)nc(N4CCOCC4)nc32)cc1	< 1000
CCC(C#N)n1cnc2c(-c3cccc4[nH]ccc34)nc(N3CCOCC3)nc21 (centres undefined)	< 1000
CC(C)(C)CC(=O)N1CCC(n2cnc3c(-c4cccc5[nH]ccc45)nc(N4CCOCC4)nc32)CC1	< 1000
Oc1cc(F)cc(-c2nc(N3CCOCC3)nc3c2ncn3Cc2ccccc2)c1	< 1000
COCCn1cnc2c(-c3cccc4[nH]ccc34)nc(N3CCOCC3)nc21	< 1000
Oc1cccc(-c2nc(N3CCOCC3)nc3c2ncn3Cc2c(F)cccc2F)c1	< 1000
COCC(C)n1cnc2c(-c3cccc(O)c3)nc(N3CCOCC3)nc21 (centres undefined)	< 1000
CCC(C)n1cnc2c(-c3ccc(N)nc3)nc(N3CCOCC3)nc21 (centres undefined)	< 1000
CCCC(=O)N1CCC(n2cnc3c(-c4cccc5[nH]ccc45)nc(N4CCOCC4)nc32)CC1	< 1000
c1cc(-c2nc(N3CCOCC3)nc3c2ncn3CC2CCCCC2)c2cc[nH]c2c1	< 1000
CN1CCN(C(=O)Cn2cnc3c(-c4cccc(O)c4)nc(N4CCOCC4)nc32)CC1	< 1000
Oc1cccc(-c2nc(N3CCOCC3)nc3[nH]c(-c4cccs4)nc23)c1	< 1000
CC(c1ccccc1)n1cnc2c(-c3cccc(O)c3)nc(N3CCOCC3)nc21 (centres undefined)	< 1000
COCCn1cnc2c(-c3cccc(O)c3)nc(N3CCOCC3)nc21	< 1000

SMILES	IC50 [nM]
CCN(CC)CCn1cnc2c(-c3cccc(O)c3)nc(N3CCOCC3)nc21	< 1000
CCC(C)n1c(NCCOC)nc2c(-c3cccc(O)c3)nc(N3CCOCC3)nc21 (centres undefined)	< 1000
CC(C)C(C)n1cnc2c(-c3ccc(N)nc3)nc(N3CCOCC3)nc21 (centres undefined)	< 1000
c1ccc(Cn2cnc3c(-c4cncnc4)nc(N4CCOCC4)nc32)cc1	< 1000
Nc1ncc(-c2nc(N3CCOCC3)nc3c2ncn3Cc2c(F)cccc2F)cn1	< 1000
Nc1ncc(-c2nc(N3CCOCC3)nc3c2ncn3C2Cc3ccccc3C2)cn1	< 1000
CCC(C)n1c(SC)nc2c(-c3cccc(O)c3)nc(N3CCOCC3)nc21 (centres undefined)	< 1000
Nc1ncc(-c2nc(N3CCOCC3)nc3[nH]cnc23)cn1	< 1000
Cc1nc(N)ncc1-c1nc(N2CCOCC2)nc2c1ncn2C(C)C1CC1 (centres undefined)	< 1000
c1cc(-c2nc(N3CCOCC3)nc3c2ncn3C2CCCC2)c2cc[nH]c2c1	< 1000
Oc1cccc(-c2nc(N3CCOCC3)nc3c2ncn3CCOc2ccccc2)c1	< 1000
CCC(C)n1c(Br)nc2c(-c3cccc(O)c3)nc(N3CCOCC3)nc21 (centres undefined)	< 1000
Oc1cccc(-c2nc(N3CCOCC3)nc3c2ncn3Cc2ccccc2)c1	< 1000
Nc1ncc(-c2nc(N3CCOCC3)nc3c2ncn3C2CCN(C(=O)c3ccccc3)C2)cn1 (centres undefined)	< 1000
CCNc1nc2c(-c3cccc(O)c3)nc(N3CCOCC3)nc2n1C(C)CC (centres undefined)	< 1000
COC(=O)c1ccc(Cn2cnc3c(-c4cccc(O)c4)nc(N4CCOCC4)nc32)cc1	< 1000
CCC(C)n1cnc2c(-c3cnc(N)nc3)nc(N3CCOC[C@@H]3C)nc21 (some centres undefined)	< 1000
CCC(C)n1cnc2c(-c3cccc4[nH]ncc34)nc(N3CCOCC3)nc21 (centres undefined)	< 1000
Nc1ccc(-c2nc(N3CCOCC3)nc3c2ncn3Cc2cccc([N+](=O)[O-])c2)cn1	< 1000
Cc1cccc(-n2cnc3c(-c4cnc(N)nc4)nc(N4CCOCC4)nc32)c1	< 1000

SMILES	IC50 [nM]
COc1cc(Cn2cnc3c(-c4cccc(O)c4)nc(N4CCOCC4)nc32)cc(OC)c1	< 1000
CCC(C)n1c(Cl)nc2c(-c3cccc(O)c3)nc(N3CCOCC3)nc21 (centres undefined)	< 1000
Oc1cccc(-c2nc(N3CCOCC3)nc3c2ncn3CC2CC2)c1	< 1000
N#Cc1cccc(Cn2cnc3c(-c4cccc(O)c4)nc(N4CCOCC4)nc32)c1	< 1000
Nc1ncc(-c2nc(N3CCOCC3)nc3c2ncn3-c2ccccc2)cn1	< 1000
CS(=O)(=O)N1CCN(C(=O)Cn2cnc3c(-c4cccc(O)c4)nc(N4CCOCC4)nc32)CC1	< 1000
CC(C)C(C)n1cnc2c(-c3cnc(N)nc3)nc(N3CCOCC3)nc21 (centres undefined)	< 1000
COc1nc(N)ncc1-c1nc(N2CCOCC2)nc2c1ncn2C(C)C1CC1 (centres undefined)	< 1000
CC(C)Cn1cnc2c(-c3cccc4[nH]ccc34)nc(N3CCOCC3)nc21	< 1000
N#CCn1cnc2c(-c3cccc(O)c3)nc(N3CCOCC3)nc21	< 1000
CS(=O)(=O)N1CCC(n2cnc3c(-c4cccc5[nH]ccc45)nc(N4CCOCC4)nc32)CC1	< 1000
Oc1cccc(-c2nc(N3CCOCC3)nc3[nH]c(Br)nc23)c1	< 1000
CCCC(=O)N1CCC(n2cnc3c(-c4cnc(N)nc4)nc(N4CCOCC4)nc32)CC1	< 1000
CS(=O)(=O)N1CCN(CCn2cnc3c(-c4cccc(O)c4)nc(N4CCOCC4)nc32)CC1	< 1000
CCCCNc1nc2c(-c3cccc(O)c3)nc(N3CCOCC3)nc2n1C(C)CC (centres undefined)	< 1000
c1cc(-c2nc(N3CCOCC3)nc3c2ncn3C2CCOC2)c2cc[nH]c2c1 (centres undefined)	< 1000
CC1CCC(n2cnc3c(-c4cnc(N)nc4)nc(N4CCOCC4)nc32)C1 (centres undefined)	< 1000
CCC(C)n1c(NCCN(C)C)nc2c(-c3cccc(O)c3)nc(N3CCOCC3)nc21 (centres undefined)	< 1000
CC(=O)Nc1ccc(Cn2cnc3c(-c4cccc(O)c4)nc(N4CCOCC4)nc32)cc1	< 1000
O=[N+]([O-])c1ccc(Cn2cnc3c(-c4cccc(O)c4)nc(N4CCOCC4)nc32)cc1	< 1000

Continued, values first:

IC50 [nM]	SMILES
< 1000	COCC(C)n1cnc2c(-c3cnc(N)nc3OC)nc(N3CCOCC3)nc21 (centres undefined)
< 1000	Nc1cccc(Cn2cnc3c(-c4cccc(O)c4)nc(N4CCOCC4)nc32)c1
< 1000	O=C(Cc1cccnc1)N1CCC(n2cnc3c(-c4cccc5[nH]ccc45)nc(N4CCOCC4)nc32)CC1
< 1000	CCC(C)n1c(N(C)C)nc2c(-c3cccc(O)c3)nc(N3CCOCC3)nc21 (centres undefined)
< 1000	Oc1cccc(-c2nc(N3CCOCC3)nc3c2ncn3Cc2cc(F)cc(F)c2)c1
< 1000	COCC(C)n1cnc2c(-c3cnc(N)nc3)nc(N3CCOCC3)nc21 (centres undefined)
< 1000	CC(C1CC1)n1cnc2c(-c3cnc(N)nc3)nc(N3CCOCC3)nc21 (centres undefined)
< 1000	CCC(C)n1c(NC(C)C)nc2c(-c3cccc(O)c3)nc(N3CCOCC3)nc21 (centres undefined)
< 1000	CC(C)NC(=O)Cn1cnc2c(-c3cccc(O)c3)nc(N3CCOCC3)nc21
< 1000	CCC(C)n1cnc2c(-c3cccc4[nH]ccc34)nc(N3CCOCC3)nc21 (centres undefined)
< 1000	CCC(C)n1cnc2c(-c3cnc(N)nc3C)nc(N3CCOCC3)nc21 (centres undefined)
< 1000	CCC(C)n1cnc2c(-c3cncnc3)nc(N3CCOCC3)nc21 (centres undefined)
< 1000	O=C(Cn1cnc2c(-c3cccc(O)c3)nc(N3CCOCC3)nc21)Nc1ccccc1
< 1000	Oc1cccc(-c2nc(N3CCOCC3)nc3c2ncn3CCN2CCCC2)c1
< 1000	CCC(C)n1c(N2CCCC2)nc2c(-c3cccc(O)c3)nc(N3CCOCC3)nc21 (centres undefined)
< 1000	CCC(C#N)n1cnc2c(-c3cnc(N)nc3)nc(N3CCOCC3)nc21 (centres undefined)
< 1000	CC(c1ccccc1)n1cnc2c(-c3cnc(N)nc3)nc(N3CCOCC3)nc21 (centres undefined)
< 1000	O=C(Cn1cnc2c(-c3cccc(O)c3)nc(N3CCOCC3)nc21)NC1CC1
< 1000	CCC(C)n1c(C)nc2c(-c3cccc(O)c3)nc(N3CCOCC3)nc21 (centres undefined)
< 1000	COc1ccc(Cn2cnc3c(-c4cccc(O)c4)nc(N4CCOCC4)nc32)cc1
< 1000	C=CCCn1cnc2c(-c3cccc(O)c3)nc(N3CCOCC3)nc21
< 1000	c1cc(-c2nc(N3CCOCC3)nc3c2ncn3CC2CC2)c2cc[nH]c2c1

IC50 [nM]	SMILES
< 1000	CCC(C)n1cnc2c(-c3cnc(N)nc3OC)nc(N3CCOCC3)nc21 (centres undefined)
< 1000	Oc1cccc(-c2nc(N3CCOCC3)nc3c2ncn3C2CCCC2)c1
< 1000	Nc1ncc(-c2nc(N3CCOCC3)nc3c2ncn3CC2CC2)cn1
< 1000	C#CCn1cnc2c(-c3cccc(O)c3)nc(N3CCOCC3)nc21
< 1000	CC(C1CC1)n1cnc2c(-c3cccc(O)c3)nc(N3CCOCC3)nc21 (centres undefined)
< 1000	CCc1nc2c(-c3cccc(O)c3)nc(N3CCOCC3)nc2n1C(C)CC (centres undefined)
< 1000	N#CCn1cnc2c(-c3cccc4[nH]ccc34)nc(N3CCOCC3)nc21
< 1000	CC(C)(C)Cn1cnc2c(-c3cnc(N)nc3)nc(N3CCOCC3)nc21
< 1000	Cc1ccc(C(=O)N2CCC(n3cnc4c(-c5cccc6[nH]ccc56)nc(N5CCOCC5)nc43)CC2)s1
< 1000	CC(C)n1cnc2c(-c3ccc(N)nc3)nc(N3CCOCC3)nc21
< 1000	Nc1ncc(-c2nc(N3CCOCC3)nc3c2ncn3C2CCCC2)cn1
< 1000	CC(C)C(C)n1cnc2c(-c3cccc4[nH]ccc34)nc(N3CCOCC3)nc21 (centres undefined)
< 1000	O=C(Cn1cnc2c(-c3cccc(O)c3)nc(N3CCOCC3)nc21)N1CCCC1
< 1000	CCC(C)n1cnc2c(-c3cccc(O)c3)nc(N3CCOCC3)nc21 (centres undefined)
< 1000	O=C(CCN1CCCCC1)Nc1ccc(Cn2cnc3c(-c4cccc(O)c4)nc(N4CCOCC4)nc32)cc1
< 1000	O=C(Cn1cnc2c(-c3cccc(O)c3)nc(N3CCOCC3)nc21)N1CCOCC1
< 1000	CCC(C)n1c(-c2ccccc2)nc2c(-c3cccc(O)c3)nc(N3CCOCC3)nc21 (centres undefined)
< 1000	CC(C)Cn1cnc2c(-c3cccc(O)c3)nc(N3CCOCC3)nc21
< 1000	c1cc(-c2nc(N3CCOCC3)nc3c2ncn3CCC2OCCCO2)c2cc[nH]c2c1
< 1000	CCC(C)n1c(S(C)(=O)=O)nc2c(-c3cccc(O)c3)nc(N3CCOCC3)nc21 (centres undefined)
< 1000	CC(C)(C)OC(=O)N1CCC(n2cnc3c(-c4cnc(N)nc4)nc(N4CCOCC4)nc32)CC1
< 1000	Nc1ncc(-c2nc(N3CCOCC3)nc3c2ncn3C2CCOC2)cn1 (centres undefined)
